Values joined by “and” are separate entries in the source; they are usually repeats but may differ in a detail not shown here. Equal entries are not always repeated. Structures can show the parent of a compound that is named as a salt.
Columns and labels:
HepG2 cells [1] = experiment: Measurement of cholesterol synthesis inhibitory ability; assay type: cell-based; conditions: HepG2 cells; for Cholesterol (100 μM) aver.: 100 μM compound; for Cholesterol (100 μM) aver. / Cholesterol (500 μM) aver.: 24 hours, content of cholesterol formed, lower value = stronger inhibition; for Cholesterol (500 μM) aver.: 500 μM compound
Procedure: (§1) 2 mM metformin was used as a comparative compound for each of the plates (control group).
A cholesterol synthesis inhibitory ability, which is an important function of AMPK (AMP-activated protein kinase), was measured using HepG2 cells (ATCC: American Type Culture Collection) as a hepatic cell model according to the following procedure.
The hepatic cell model HepG2 cells were cultured in 1% serum-containing media (DMEM (Gibco), FBS (Gibco)) for 24 hours, and then treated with 100 μM or 500 μM of each of the compounds prepared in Examples for 24 hours. Then, the cells were disrupted with a lysis solution (0.1 M potassium phosphate, pH 7.4, 0.05 M NaCl, 5 mM cholic acid, 0.1% Triton X-100 (Sigma)). To the disrupted cells was added the same volume of a reaction solution (2 U/ml of a cholesterol oxidizing agent, 2 U/ml of a peroxidase, 0.2 U/ml of a cholesterol esterase, and 300 μM of Amplex red as a fluorescent factor (Molecular Probe)), which was allowed to react at 37° C. for 30 minutes. After completion of the reaction, the content of cholesterol formed in the cell lysates was measured at a wavelength of 560/590 nm (ex/em) using a fluorescence microscope.
A lower measurement value means an increased cholesterol synthesis inhibitory ability.

C2C12 cells = experiment: Measurement of glucose absorption ability; assay type: cell-based; conditions: for Glucose absorption (100 μM) aver.: 100 μM compound with 1 μM insulin, 24 hours, differentiated C2C12 cells, 3H-deoxy-glucose, higher value = stronger, more than 200% counts as glucose absorption ability
Procedure: as §1
C2C12 cells (ATCC: American Type Culture Collection), a muscle cell model, were induced to differentiate into muscle cells in 2% bovine fetal serum-containing media (DMEM (Gibco), FBS (Gibco)) for 6 days. The C2C12 cells which differentiated into muscle cells were transferred to serum-free low glucose media (DMEM (Gibco), FBS (Gibco)), treated with 100 μM of each of the compounds, and then cultured with 1 μM of insulin for 24 hours. After cultivation, the cells were treated with 1 μCi ^3H-deoxy-glucose (Amersham Pharmacia) and 10 μM deoxy-glucose (Sigma) at 37° C. for 15 minutes. The media were removed therefrom, and the cells were washed twice with PBS (phosphate buffered saline). The washed cells were treated with 0.1N NaOH and neutralized with 1N HCl. The content of glucose absorbed into the cells was measured with a liquid scintillation counter.
A higher measurement value means a stronger ability to reduce insulin resistance.

HepG2 cells [2] = experiment: Measurement of gluconeogenesis inhibitory ability; assay type: cell-based; conditions: for Gluconeogenesis inhibition (100 μM) aver. / activity at 100 µM: 100 μM compound, 24 hours, content of glucose formed from 14C-lactate, lower value = stronger inhibition; for activity at 100 µM: Homo sapiens, HepG2, 24 h, read-out: Gluconeogenesis inhibition (100 μM) aver.
Procedure: as §1
HepG2 cells (ATCC: American Type Culture Collection) were cultured in 10% serum-containing high glucose media, transferred to no serum-containing low glucose media (DMEM (Gibco), FBS (Gibco)), and then treated with 100 μM of each of the compounds for 24 hours. Then, the cells were treated with 0.5 μCi ^14C-lactate (Amersham Pharmacia) and 10 mM L-lactate (Sigma), and cultured for 4 hours. After cultivation, the media were removed therefrom, and the cells were washed with PBS, treated with 0.1N NaOH and kept at room temperature for 1 hour. Then, the cells were neutralized with 1N HCl, and the content of glucose formed in the cells was measured with a liquid scintillation counter.
A lower measurement value means an increased gluconeogenesis inhibitory ability.

HepG2 cells [3] = experiment: Measurement of triglyceride synthesis inhibitory ability; assay type: cell-based; conditions: HepG2 cells; for Triglyceride (100 μM) aver.: 100 μM compound; for Triglyceride (100 μM) aver. / Triglyceride (500 μM) aver.: 24 hours, content of triglyceride formed, lower value = stronger inhibition; for Triglyceride (500 μM) aver.: 500 μM compound
Procedure: as §1
HepG2 cells (ATCC: American Type Culture Collection) were cultured in 1% serum-containing media (DMEM (Gibco), FBS (Gibco)) for 24 hours, and then treated with 100 μM or 500 μM of each of the compounds prepared in Examples for 24 hours. Then, the cells were disrupted with a lysis solution (0.1 M potassium phosphate, pH 7.4, 0.05 M NaCl, 5 mM cholic acid, 0.1% Triton X-100). To the disrupted cells was added the same volume of a reaction solution (0.76 U/ml of a glycerol kinase (Asan Pharmaceutical Co., Ltd.), […] of a peroxidase (Asan Pharmaceutical Co., Ltd.), 22.2 U/ml of a glycerol oxidizing agent (Asan Pharmaceutical Co., Ltd.), and 300 μM of Amplex red as a fluorescent factor (Molecular Probe)), which was allowed to react at 37° C. for 30 minutes. After completion of the reaction, the content of triglyceride formed in the cell lysates was measured at a wavelength of 560/590 nm (ex/em) using a fluorescence microscope.
A lower measurement value means an increased triglyceride synthesis inhibitory ability.

[4] = Metformin 2 mM, one value per plate

Row | Compound | melting point | Cholesterol (100 μM) aver. (HepG2 cells [1]) | Cholesterol (500 μM) aver. (HepG2 cells [1]) | Glucose absorption (100 μM) aver. (C2C12 cells) | Gluconeogenesis inhibition (100 μM) aver. (HepG2 cells [2]; HepG2 cells) | Triglyceride (100 μM) aver. (HepG2 cells [3]) | Triglyceride (500 μM) aver. (HepG2 cells [3]) | effect in inhibiting gluconeogenesis better than that of the control group (HepG2 cells [2]; 100 μM compound versus 2 mM metformin) | activity at 100 µM (HepG2 cells [2]; HepG2 cells) | Cholesterol aver. (control group) (HepG2 cells [1]; [4]) | Glucose absorption aver. (control group) (C2C12 cells; Metformin 2 mM, C2C12 cells, one value per plate) | Gluconeogenesis inhibition aver. (control group) (HepG2 cells [2]; Metformin 2 mM, HepG2 cells, one value per plate) | Triglyceride aver. (control group) (HepG2 cells [3]; [4]) | Gluconeogenesis inhibition (100 μM) aver. (HepG2 cells [2]; HepG2 cells, 100 µM)
1 | N=C(N)NC(=Nc1cccc2ccccc12)NCc1ccc2c(c1)OCO2 (as salt: hydrochloride) [Example 3, N1-benzo[1,3]dioxol-5-ylmethyl-N2-(1-naphthyl)biguanide hydrochloride] | 196.1 to 198.6 °C | – | – | – | – | – | – | – | – | – | – | – | – | –
2 | CCc1cc(Cl)ccc1NC(=N)NC(=N)NCc1ccc2c(c1)OCO2.Cl [Example 8, N1-benzo[1,3]dioxol-5-ylmethyl-N2-(2-ethyl-4-chloro)phenyl biguanide hydrochloride] | – | −1.48 | 28.1 | 14.21% | 96.20 | 3.35 | 19.3 | – | – | – | – | – | – | –
3 | CC(C)(C)CC(C)(C)N=C(NCc1ccc2c(c1)OCO2)NC(=N)N.Cl [Example 9, N1-benzo[1,3]dioxol-5-ylmethyl-N2-t-octyl biguanide hydrochloride] | 141.7 to 155.4 °C | 37.3 | −7.10 | – | – | 82.6 | −1.23 | at least 20 times | 47.5% | – | – | – | – | –
4 | CN=C(NCc1ccc2c(c1)OCO2)NC(=N)N.Cl [Example 17, N1-benzo[1,3]dioxol-5-ylmethyl-N2-methyl biguanide hydrochloride] | 143.9 to 158.1 °C | 55.85 | 12.19 | – | – | 96.55 | 53.45 | – | 90.2% | – | – | – | – | –
5 | Cl.N=C(NCc1ccc2c(c1)OCO2)NC(=N)NCC1CC1 [Example 21, N1-benzo[1,3]dioxol-5-ylmethyl-N2-cyclopropanemethyl biguanide hydrochloride] | – | 54.92 | 15.61 | 162.2% | 88.12 | 108.88 | 83.07 | – | – | – | – | – | – | –
6 | Cl.N=C(NCc1ccc2c(c1)OCO2)NC(=N)Nc1ccc(-c2ccccc2)cc1 [Example 35, N1-benzo[1,3]dioxol-5-ylmethyl-N2-(4-biphenyl)biguanide hydrochloride] | – | 9.93 | 23.56 | 39.19% | 2.28 | 18.86 | 14.13 | – | – | – | – | – | – | –
7 | CN(C)C(=N)N=C(N)N [Metformin, metformin, reference compound] | – | – | – | – | – | – | – | – | – | 73.31 and 74.50 and 85.91 and 70.69 | 253.20% and 336.45% and 291.63% and 170.94% | 64.50 and 59.11 and 53.09 and 78.33 | 74.57 and 69.88 and 73.61 and 70.05 | –
8 | N1-benzo[1,3]dioxol-5-ylmethyl-N2-(1-adamantyl)biguanide hydrochloride (isomer) [Example 28] | – | 73.67 | 30.11 | 2.20% | – | 89.72 | 28.87 | – | – | – | – | – | – | 79.17
9 | N1-benzo[1,3]dioxol-5-ylmethyl-N2-(1-adamantyl)biguanide hydrochloride (isomer) [Example 29] | – | 43.03 | 67.50 | 140.2% | – | 101.52 | 81.39 | – | – | – | – | – | – | 92.07
10 | N1-benzo[1,3]dioxol-5-ylmethyl-N2-t-butyl biguanide hydrochloride [Example 4] | – | 27.6 | 11.0 | 162.5% | 100.2 | 89.8 | 70.1 | – | – | – | – | – | – | –

Source: US8642647B2, “N1-benzo[1,3]dioxol-5-ylmethyl-N2-substituted biguanide derivative, preparation method thereof, and pharmaceutical composition containing same” (Hanall Biopharma Co., Ltd., priority 2008, dated 2014)
